The term pIC50 denotes the negative decadic logarithm of the IC50, by convention in mol/L. The GI50 is the concentration giving 50% growth inhibition. Read a high GI50 as less potent growth inhibition.

The text below walks through data of ChEMBL document CHEMBL1152223, “Analogues of 2-phenyl-ethenesulfonic acid phenyl ester have dual functions of inhibiting expression of inducible nitric oxide synthase and activating peroxisome proliferator-activated receptor gamma” (Bioorg Med Chem Lett, 2008).

The subject of series [1] is RAW264.7. In words: Suppression of LPS/IFN-gamma-stimulated NO production in mouse RAW264.7 cells at 10 uM. Type of series: functional.
Series [2] concerns RAW264.7. In words: Suppression of LPS/IFN-gamma-stimulated NO production in mouse RAW264.7 cells. Format: functional, cell-based.
Series [3] in a line: Cytotoxicity against mouse RAW264.7 cells. Format: cell-based.
In series [4] the target is T1, Peroxisome proliferator-activated receptor gamma (Homo sapiens, UniProt P37231).
T1 sequence (P37231 whole entry): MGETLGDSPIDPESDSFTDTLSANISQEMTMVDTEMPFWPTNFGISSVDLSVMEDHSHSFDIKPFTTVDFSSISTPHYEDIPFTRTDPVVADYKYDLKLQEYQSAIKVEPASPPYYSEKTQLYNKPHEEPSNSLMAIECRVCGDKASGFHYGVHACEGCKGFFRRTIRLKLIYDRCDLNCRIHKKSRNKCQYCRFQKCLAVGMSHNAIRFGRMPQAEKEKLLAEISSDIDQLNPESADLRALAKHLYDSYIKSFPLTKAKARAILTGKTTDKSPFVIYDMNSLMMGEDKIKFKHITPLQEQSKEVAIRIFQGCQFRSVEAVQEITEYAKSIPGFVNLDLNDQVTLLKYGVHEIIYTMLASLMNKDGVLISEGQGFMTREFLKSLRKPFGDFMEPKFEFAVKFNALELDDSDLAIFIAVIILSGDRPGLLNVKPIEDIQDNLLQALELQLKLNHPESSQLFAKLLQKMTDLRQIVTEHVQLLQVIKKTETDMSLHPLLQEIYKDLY
Put plainly: Displacement of [3H]BRL49653 from PPARgamma ligand binding domain by scintillation proximity assay.

The subject of series [5] is RAW264.7. Put plainly: Inhibition of iNOS expression in LPS/IFN-gamma-stimulated mouse RAW264.7 cells at 5 uM. Format: functional, cell-based.
In series [6] the test system is RAW264.7. Put plainly: Inhibition of iNOS expression in LPS/IFN-gamma-stimulated mouse RAW264.7 cells at 10 uM. Format: functional, cell-based.

pIC50: −log10 of the molar value. Calls of active or inactive are those of the source. No cut-off for these calls is given here.

In the case of `O=S(=O)(Cc1ccccc1)Oc1ccccc1` [PHENYL PHENYLMETHANESULFONATE], in series [1], the Activity stood at 3%.

The compound `CCOc1ccc(NS(=O)(=O)/C=C/c2ccccc2)cc1` gave an Activity in series [1] of 0%.

For `O=C(O)c1ccc(NS(=O)(=O)/C=C/c2ccccc2)cc1`, the Activity in series [1] is 2%.

Take `CCS(=O)(=O)Oc1cccc(Oc2ccccc2)c1`: in series [1], the Activity is listed as 11%.

`O=C(O)c1cccc(OS(=O)(=O)/C=C/c2ccccc2)c1`: the pIC50 in series [2] is 4.66; in series [4], 4.87. Moreover, in series [3], the GI50 was more than 80 µM.

For `O=S(=O)(/C=C/c1ccccc1)Oc1ccccc1`, the figures for the negative logarithm of the IC50 (pIC50) in series [2] and in series [4] were 5.18 and 5.88, respectively. The compound further displayed a GI50 in series [3] of more than 80 µM. Moreover, the outcome in series [5] and in series [6] was Active.

For the compound `O=S(=O)(Cc1ccccc1)Oc1ccccc1Cl`, the Activity in series [1] is reported as 0%.

In series [2], `CCCCC/C=C/C=C1/C(=O)C=C[C@@H]1C/C=C\CCCC(=O)O` gave a pIC50 of 5.66. The outcome in series [5] and in series [6] was Active.

Compound `O=S(=O)(/C=C/c1ccccc1)Nc1ccc(Br)cc1` showed an Activity in series [1] of 5%.

On to `O=S(=O)(CCc1ccccc1)Oc1c(Cl)cc(Cl)cc1Cl`, for which the Activity in series [1] is 10%.

Regarding `CCOC(=O)c1ccc(OS(=O)(=O)/C=C/c2ccccc2)cc1`, the pIC50 is 5.01 in series [2] and 6.13 in series [4]. This compound showed a GI50 in series [3] of more than 80 µM.

The compound `O=C(O)c1cccc(OS(=O)(=O)CCc2ccccc2)c1` showed an Activity in series [1] of 6%.

As to `O=C(O)c1cccc(NS(=O)(=O)/C=C/c2ccccc2)c1`, the Activity in series [1] worked out at 1%.

In series [1], `O=S(=O)(/C=C/c1ccccc1)Nc1ccccc1` displayed an Activity of 4%.

The compound `O=S(=O)(Cc1ccccc1)Oc1ccc2ccccc2c1` came in with an Activity in series [1] of 7%.

With `O=S(=O)(/C=C/c1ccccc1)Oc1c(Cl)cc(Cl)cc1Cl`, the pIC50 in series [2] is 5.74; in series [4], 5.84. In series [3], the GI50 is more than 80 µM. The outcome in series [5] and in series [6] was Active.

With `Cc1cccc(OS(=O)(=O)/C=C/c2ccccc2)c1`, the pIC50 in series [2] is 5.46; in series [4], 5.93. For the same compound, the GI50 in series [3] came out at 62.5 µM.

Take `CC(=O)Nc1ccc(OS(=O)(=O)/C=C/c2ccccc2)cc1`: the pIC50 was 4.70 in series [2] and 4.97 in series [4]. The same compound came in with a GI50 in series [3] of more than 80 µM.

Consider `O=Cc1ccc(OS(=O)(=O)/C=C/c2ccccc2)cc1`, for which the pIC50 is 5.01 in series [2] and 5.68 in series [4]. This compound came in with a GI50 in series [3] of more than 80 µM. Also, the outcome in series [5] and in series [6] was Active.

With `O=S(=O)(CCc1ccccc1)Oc1ccc2ccccc2c1`, the Activity in series [1] is on record as 6%.

`NS(=O)(=O)c1ccc(NS(=O)(=O)/C=C/c2ccccc2)cc1` returned an Activity in series [1] of 0%.

With `O=S(=O)(/C=C/c1ccccc1)Oc1ccc(Cl)cc1`, the pIC50 was 5.63 in series [2] and 6.52 in series [4]. This compound also displayed a GI50 in series [3] of 75.3 µM.

As for `CN(CCOc1ccc(CC2SC(=O)NC2=O)cc1)c1ccccn1` (stereo unspecified) [ROSIGLITAZONE], in series [2], the negative logarithm of the IC50 (pIC50) is 4.76.

In series [1], `Cc1ccc(NS(=O)(=O)/C=C/c2ccccc2)cc1` came in with an Activity of 8%.

Take `O=S(=O)(/C=C/c1ccccc1)Oc1ccc2ccccc2c1`: the results for the negative-log IC50 (pIC50) in series [2] and in series [4] were 5.21 and 5.96, respectively. The compound also showed a GI50 in series [3] of more than 80 µM.

Compound `O=S(=O)(CCc1ccccc1)Oc1ccccc1` returned an Activity in series [1] of 2%.

Take `O=S(=O)(/C=C/c1ccccc1)Oc1cccc(Oc2ccccc2)c1`: the pIC50 was 4.79 in series [2] and 6.42 in series [4]. Besides, in series [3], the GI50 was more than 80 µM.

As to `COc1ccc(OS(=O)(=O)/C=C/c2ccccc2)cc1`, the pIC50 in series [2] is 5.13; in series [4] it was 5.89.

Consider `O=S(=O)(/C=C/c1ccccc1)Oc1ccc(OCc2ccccc2)cc1`, for which the pIC50 is 5.03 in series [2] and 6.15 in series [4]. Also, in series [3], the GI50 is more than 80 µM. Further, the result in series [5] and in series [6] was Active.

Regarding `O=S(=O)(CCc1ccccc1)Oc1ccc(Cl)cc1`, in series [1], the Activity worked out at 4%.

On to `Cc1ccc(OS(=O)(=O)/C=C/c2ccccc2)cc1`, for which the pIC50 is 5.56 in series [2] and 6.39 in series [4]. The same compound displayed a GI50 in series [3] of more than 80 µM. The result in series [5] and in series [6] was Active.

Turning to `Cc1cccc(OS(=O)(=O)CCc2ccccc2)c1`, the Activity in series [1] is 0%.

In series [1], `COc1ccc(NS(=O)(=O)/C=C/c2ccccc2)cc1` returned an Activity of 5%.

As to `COc1cccc(NS(=O)(=O)/C=C/c2ccccc2)c1`, the Activity in series [1] came to 12%.
